From patent publication US20260115161A1, “2-HYDROXY-OCTADECENE-9-CIS-OATE FOR USE IN THE TREATMENT OF ONCOLOGICAL PATHOLOGIES AND NEUROPATHIC PAIN” (Laminar Pharmaceuticals S.A., priority 2023, published 2026)

Experiments:
[1] = test system: NCI-H2021 Mesothelioma; experiment: Cell line assay, HOCOS combinations, NCI-H2021; format: cell-based, human; details: NCI-H2021, compound alone
Experimental: (§1) To study the possible use of HOCOS in combinatorial therapies, human glioblastoma cells of lines U118, SNB19, SF268, human mesothelioma cells NCI-H2021 and pancreatic cancer cells BxPC-3 (pancreatic adenocarcinoma) and MIAPaCa-2 ([…]) were cultured in the absence or presence of different chemotherapeutic agents and combinations of HOCOS with said compounds.

[2] = test system: A549 Lung; experiment: Cell line assay, HOCOS combinations, A549; format: cell-based; details: Homo sapiens; A549, compound alone
[3] = test system: BxPC-3 Pancreas; experiment: Cell line assay, HOCOS combinations, BxPC-3; format: cell-based; details: Homo sapiens; BxPC-3, compound alone
Experimental: as §1

[4] = test system: U118 Glioblastoma; experiment: Cell line assay, HOCOS combinations, U118; format: cell-based; details: Homo sapiens; U118, compound alone
Experimental: as §1

[5] = test system: SNB19 Glioblastoma; experiment: cells; details: Homo sapiens, SNB-19
Experimental: as §1

[6] = test system: neuropathic pain due to spinal cord injury; details: Cardenas et al., cited from earlier work

In the case of `N.N.[Cl][Pt][Cl]` [Cisplatin], the IC50 [1] is reported as 16.4 µM.

`C#Cc1cccc(Nc2ncnc3cc(OCCOC)c(OCCOC)cc23)c1` [Erlotinib] showed an IC50 [2] of 16 µM.

For `Nc1ccn([C@@H]2O[C@H](CO)[C@@H](O)C2(F)F)c(=O)n1` [Gemcitabine], the IC50 [3] was 0.0078 µM.

`CCc1c2c(nc3ccc(OC(=O)N4CCC(N5CCCCC5)CC4)cc13)-c1cc3c(c(=O)n1C2)COC(=O)[C@]3(O)CC` [Irinotecan] showed an IC50 [4] of 15 µM.

In the case of `Cc1ncc(C[n+]2csc(CCO)c2C)c(N)n1` [Thiamine], the IC50 [5] is reported as 15400 µM.

For `CC(C)C[C@H](CN)CC(=O)O` [pregabalin], the “percentage of patients responding, pregabalin group” value ([6]; 33% in the placebo group) is given as 48%, the “mean reduction of neuropathic pain” value [6] is given as 1.2 points on the VAS scale and the “patients responding to treatment” value [6] is given as “approximately 50%”. For the same compound, the “difference between pregabalin and placebo groups” value ([6]; VAS scale) was 0.82 points.
